Measurements as given in the supplement of paper PMC6045584.
± gives the standard deviation of the averaged measurements.

How the values were obtained:
ABT-737 = compound: CN(C)CC[C@H](CSc1ccccc1)Nc1ccc(S(=O)(=O)NC(=O)c2ccc(N3CCN(Cc4ccccc4-c4ccc(Cl)cc4)CC3)cc2)cc1[N+](=O)[O-] [ABT-737]; test: surviving fraction relative to DMSO-only wells; higher = less growth inhibition; conditions: exposure time: 5 days
Summary of the method: (§1)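 Luminescence normalised to the median of DMSO-only wells defines surviving fraction, with viability read by CellTiter-Glo. Signal was recorded after 10 minutes at room temperature, once log-phase tumour cell lines seeded at 250–500 cells per well in 384-well plates had spent 24 hours settling and then five days under continuous exposure to inhibitors at 0.5, 1, 5, 10, 50, 100, 500 and 1000 nM.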

DOXORUBICIN = compound: COc1cccc2c1C(=O)c1c(O)c3c(c(O)c1C2=O)C[C@@](O)(C(=O)CO)C[C@@H]3O[C@H]1C[C@H](N)[C@H](O)[C@H](C)O1 [DOXORUBICIN]; test: as above; conditions: exposure time: 5 days
Summary of the method: as §1

| Test System | surviving fraction (ABT-737; 0.5 nM) | surviving fraction (ABT-737; 1 nM) | surviving fraction (ABT-737; 5 nM) | surviving fraction (ABT-737; 10 nM) | surviving fraction (ABT-737; 50 nM) | surviving fraction (ABT-737; 100 nM) | surviving fraction (ABT-737; 500 nM) | surviving fraction (ABT-737; 1000 nM) | surviving fraction (DOXORUBICIN; 0.5 nM) | surviving fraction (DOXORUBICIN; 1 nM) | surviving fraction (DOXORUBICIN; 5 nM) | surviving fraction (DOXORUBICIN; 10 nM) | surviving fraction (DOXORUBICIN; 50 nM) | surviving fraction (DOXORUBICIN; 100 nM) | surviving fraction (DOXORUBICIN; 500 nM) | surviving fraction (DOXORUBICIN; 1000 nM) |
| --- | --- | --- | --- | --- | --- | --- | --- | --- | --- | --- | --- | --- | --- | --- | --- | --- |
| HMT3552 BREAST | 1.01 ± 0.084 | 1.02 ± 0.033 | 1.04 ± 0.035 | 0.979 ± 0.082 | 1.1 ± 0.036 | 1.23 ± 0.038 | 1.03 ± 0.06 | 1.17 ± 0.03 | 1.09 | 0.911 | 0.949 | 0.817 | 0.154 | 0.167 | 0.099 | 0.027 |
| HS578T BREAST | 1.08 ± 0.11 | 1.37 ± 0.23 | 1.26 ± 0.15 | 1.24 ± 0.11 | 1.18 ± 0.073 | 1.15 ± 0.15 | 0.975 ± 0.021 | 0.955 ± 0.059 | 0.922 ± 0.097 | 0.958 ± 0.092 | 0.838 ± 0.1 | 0.693 ± 0.013 | 0.483 ± 0.046 | 0.489 ± 0.066 | 0.094 ± 0.02 | 0.037 ± 0.0079 |
| HMLE3 BREAST | 1.06 ± 0.073 | 1.06 ± 0.049 | 1.15 ± 0.013 | 1.17 ± 0.11 | 1.1 ± 0.13 | 1.17 ± 0.12 | 1.17 ± 0.13 | 1.22 ± 0.1 | 0.941 ± 0.088 | 1.04 ± 0.046 | 0.744 ± 0.081 | 0.405 ± 0.0065 | 0.231 ± 0.022 | 0.069 ± 0.018 | 0.02 ± 0.001 | 0.0223 ± 0.00058 |
| HCC70 BREAST | 1.07 ± 0.044 | 1.11 ± 0.08 | 1.1 ± 0.065 | 1.11 ± 0.051 | 1.06 ± 0.092 | 1.03 ± 0.078 | 1 ± 0.048 | 0.978 ± 0.032 | 0.966 ± 0.06 | 0.939 ± 0.021 | 0.986 ± 0.15 | 0.9 ± 0.13 | 0.33 ± 0.013 | 0.489 ± 0.045 | 0.15 ± 0.022 | 0.0553 ± 0.017 |
| G292 BONE | 1.06 ± 0.043 | 1.03 ± 0.021 | 1.08 ± 0.014 | 1.02 ± 0.012 | 1.07 ± 0.022 | 1.06 ± 0.024 | 1.02 ± 0.019 | 0.904 ± 0.027 | 1.03 ± 0.065 | 1 ± 0.037 | 0.816 ± 0.052 | 0.601 ± 0.059 | 0.388 ± 0.031 | 0.338 ± 0.0043 | 0.108 ± 0.006 | 0.0887 ± 0.0033 |
| HCC38 BREAST | 1.22 ± 0.037 | 1.23 ± 0.086 | 1.3 ± 0.23 | 1.31 ± 0.049 | 1.21 ± 0.11 | 1.26 ± 0.17 | 0.873 ± 0.12 | 0.714 ± 0.068 | 1.23 ± 0.28 | 1.19 ± 0.18 | 1.1 ± 0.23 | 0.759 ± 0.14 | 0.301 ± 0.034 | 0.0897 ± 0.0085 | 0.0433 ± 0.0025 | 0.044 ± 0.0079 |
| HS57T BREAST | 1.03 ± 0.056 | 1.09 ± 0.011 | 1.08 ± 0.072 | 1.11 ± 0.093 | 1.04 ± 0.01 | 1.06 ± 0.066 | 0.981 ± 0.039 | 0.965 ± 0.018 | 0.98 ± 0.066 | 0.906 ± 0.1 | 0.478 ± 0.09 | 0.318 ± 0.015 | 0.353 ± 0.045 | 0.124 ± 0.015 | 0.0277 ± 0.0011 | 0.0273 ± 0.0011 |
